Experimental data taken from US20130204033A1, “ANTIPROLIFERATIVE COMPOUNDS, CONJUGATES THEREOF, METHODS THEREFOR, AND USES THEREOF” (Medarex, Inc., priority 2009, published 2013).
Like-named read-outs stand apart in the source and are kept apart here.

Experiments:
Format in all cases: cell-based, human
786-O [1] = experiment: ATP luminescence proliferation assay, 786-O
Method: (§1) This example generally describes the procedures used to assay the antiproliferative activity of compounds of this invention or their conjugates. Human tumor cell lines were obtained from the American Type Culture Collection (ATCC), P.O. Box 1549, Manassas, Va. 20108, USA, and cultured according to instruction from the ATCC. Cells were seeded at 1.0×10^3 or 1.0×10^4 cells/well in 96-well plates for 3 h for ATP assays or ^3H thymidine assays, respectively. 1:3 serial dilutions of free (unconjugated) compounds or their conjugates were added to the wells. Plates were allowed to incubate for 24 to 72 h. The ^3H thymidine plates were pulsed with 1.0 μCi of ^3H-thymidine per well for the last 24 hours of the total incubation period, harvested, and read on a Top Count Scintillation Counter (Packard Instruments, Meriden, Conn.). ATP levels in the ATP plates were measured using the […]-GLO® Luminescent Cell Viability kit following the manufacturer's manual and read on a GLOMAX® 20/20 luminometer (both from Promega, Madison, Wis., USA). The EC50 values—the concentration at which an agent inhibits or reduces cell proliferation by 50% —were determined using PRISM™ software, version 4.0 (GraphPad Software, La Jolla, Calif., USA).
(§2) Using the ^3H thymidine or the ATP luminescence assay, or both, the activities of compounds of this invention were assayed against the following cancer cell lines: HCT-15 (colorectal cancer, multi-drug resistant (MDR)); Hep3B (liver cancer); LNCaP (prostate cancer, androgen receptor positive (AR^+)); MDA-MB-231 (breast cancer, estrogen receptor, progesterone receptor, and Her2 negative (triple negative)); A2058 (melanoma); U-87 MG (glioblastoma); NCI-H460 (NSCLC); A549 (NSCLC); HPAC (pancreatic cancer, primary); PC3 (prostate cancer, AR); BT474 (breast cancer, Her2 highly positive (Her2hi)); SKOV3 (ovarian cancer, Her2hi); 786-O (renal cancer); UO-31 (renal cancer, MDR); NCI-H740 (SCLC); DMS53 (SCLC); SK-BR3 (breast cancer, Her2hi); ZR-75 (breast cancer, estrogen receptor positive); OVCAR3 (ovarian cancer); HL-60 (APL); OVCAR8/Adr (ovarian cancer, MDR); CEM-Cl (ALL); Nomo-1 (AML); RPMI-8226 (MM)); Raji (lymphoma); SW-480 (colorectal cancer, metastatic); SW-620 (colorectal cancer); and H226 (lung cancer). (Not all compounds were assayed against all cell lines.)
(§3) FIGS. 12a and 12b show illustrative plots for ATP luminescence proliferation assays for a second set of compounds of this invention, against HL-60 and 786-O cells, respectively, with an incubation period of 72 h. FIGS. 12c and 12d show the plots for ^3H thymidine proliferation assays for the same set of compounds, again against HL-60 and 786-O cells, respectively, with a 72 h incubation period. In each instance, doxorubicin was used as a comparative compound.
(§4) Table 3 provides the data for the ATP luminescence proliferation assays, with an incubation period of 48, 72, or 96 h, as noted.

786-O [2] = experiment: 3H thymidine proliferation assay, 786-O; conditions: Homo sapiens, 786-0, read-out: EC50, 786-O, 3H thymidine method, 72 h incubation
Method: as §1, §2
(§5) Table 2 provides the data for proliferation assays using the ^3H thymidine method, with an incubation period of 72 h.

HL-60 [3] = experiment: 3H thymidine proliferation assay, HL-60; conditions: Homo sapiens, HL-60, read-out: EC50, HL-60, 3H thymidine method, 72 h incubation
Method: as §1, §2, §5

HL-60 [4] = experiment: ATP luminescence proliferation assay, HL-60
Method: as §1, §2, §3, §4

H226 = experiment: ATP luminescence proliferation assay, H226; conditions: Homo sapiens, NCI-H226, 72 h incubation period, read-out: EC50 against the H226 cell line
Method: as §1, with “The EC50 values—the concentration at which an agent inhibits or reduces cell proliferation by 50% —were determined using PRISM™ software, version 4.0 (GraphPad Software, La Jolla, Calif., USA).” left out
as §2, with “(Not all compounds were assayed against all cell lines.)” left out

OVCAR8/Adr = experiment: ATP luminescence proliferation assay, OVCAR8/Adr; conditions: read-out: EC50 against the OVACAR8/Adr cell line
Method: as §1, §2, §4

OVCAR3 = experiment: ATP luminescence proliferation assay, OVCAR3
Method: as §1, §2, §4

HCT-15 = experiment: ATP luminescence proliferation assay, HCT-15; conditions: ATP luminescence, HCT-15, 72 h incubation; read-out: EC50 HCT-15 (72 h)
Method: as §1, §2, §4

CCCOCN(C(=O)[C@@H](NC(=O)[C@H]1CCCCN1C)[C@@H](C)CC)[C@H](C[C@@H](OC)c1nc(C(=O)N[C@@H](Cc2ccc(N)cc2)CC(C)C(=O)OCC)cs1)C(C)C (stereo partly drawn) [Compound 135]
EC50 (786-O [1]; ATP luminescence, 786-O, 72 h incubation, read-out: EC50 786-O (72 h)): 12.9 nM

CC[C@H](C)[C@H](NC(=O)[C@H]1CCCCN1C)C(=O)N(COC)[C@H](C[C@@H](OC(C)=O)c1nc(C(=O)N[C@@H](Cc2ccccc2)C(=O)OC)cs1)C(C)C [(III-q)]
EC50 (786-O [2]): 7.61 nM
EC50 (HL-60 [3]): 15.1 nM
EC50 (786-O [1]; Homo sapiens, 786-0, 72 h, read-out: EC50 786-O (72 h), ATP luminescence, 786-O, 72 h incubation): 104 nM
EC50 (HL-60 [4]; Homo sapiens, HL-60, 72 h, read-out: EC50 HL-60 (72 h), ATP luminescence, HL-60, 72 h incubation): 14.3 nM

CCCN(C(=O)[C@@H](NC(=O)[C@H]1CCCCN1C)[C@@H](C)CC)[C@H](C[C@@H](OC(C)=O)c1nc(C(=O)N[C@@H](Cc2ccccc2)C(=O)OC)cs1)C(C)C [Compound 109]
EC50 (H226): 1.61 nM
EC50 (OVCAR8/Adr; Homo sapiens, OVCAR-8, 48 h incubation period): 24.9 nM
EC50 (786-O [1]; Homo sapiens, 786-0, 48 h, read-out: EC50 786-O (48 h), ATP luminescence, 786-O, 48 h incubation): 1.03 nM
EC50 (OVCAR3; Homo sapiens, OVCAR-3, 72 h, read-out: EC50 OVCAR3 (72 h), ATP luminescence, OVCAR3, 72 h incubation): 0.202 nM
EC50 (HL-60 [4]; Homo sapiens, HL-60, 48 h, read-out: EC50 HL-60 (48 h), ATP luminescence, HL-60, 48 h incubation): 0.019 nM

CC[C@H](C)[C@H](NC(=O)[C@H]1CCCCN1C)C(=O)N(C)[C@H](C[C@@H](OC(C)=O)c1nc(C(=O)N[C@@H](Cc2ccc(N)cc2)C[C@H](C)C(=O)O)cs1)C(C)C [Compound 84a]
EC50 (OVCAR8/Adr; 48 h incubation period): > 300 nM
EC50 (HCT-15): 138 nM
EC50 (786-O [1]; ATP luminescence, 786-O, 48 h incubation, read-out: EC50 786-O (48 h)): 6.12 nM
EC50 (OVCAR3; ATP luminescence, OVCAR3, 48 h incubation, read-out: EC50 OVCAR3 (48 h)): 8.19 nM
EC50 (HL-60 [4]; ATP luminescence, HL-60, 48 h incubation, read-out: EC50 HL-60 (48 h)): 10 to 28 nM
